Tests used:
Assay type in all cases: in vivo, male KK mice
diet-induced obese mice [1] = assay: Test Example 2: glucosyl hesperidin and caffeine mixtures (10:1, 20:1, 40:1) fed in low-calorie feed to diet-induced obese mice; conditions: vs control group, caffeine 0.0125 mass %, glucosyl hesperidin 0.25 mass %; for weight of subcutaneous fat tissue / weight of mesenteric (visceral) fat tissue: 2 weeks low-calorie feed; for weight of subcutaneous fat tissue: FIG. 6; for weight of mesenteric (visceral) fat tissue: FIG. 7; for changes in body weight: before and after 2 weeks low-calorie feed, FIG. 4
Description: Under the same conditions as in Test Example 1, the effect of the composition of the present invention comprising glucosyl hesperidin and caffeine was investigated. The glucosyl hesperidin and caffeine used here were the same as in Test Example 1.
Five-week-old male KK mice were fed with water and a powder feed for breeding (CE-2 (trade name), made by CLEA Japan, Inc.) for one week, and then fed with the high-calorie feed (4.70 kcal/g) in Table 1 for 3 weeks for induction of obesity. The mice were divided into 6 groups (a control group, a caffeine administration group, a glucosyl hesperidin administration group, and mixture of caffeine and glucosyl hesperidin (present invention) administration groups, 6 to 7 mice per group) and fed with the low-calorie feed (3.16 kcal/g) in Table 1 or the low-calorie feed supplemented with the corresponding test sample for 2 weeks, in expectation of using body fat. The feeds given to the test groups are as follows. • (1) Control group; low-calorie feed • (2) Caffeine administration group; low-calorie feed+0.0125 mass % of caffeine • (3) Glucosyl hesperidin administration group; low-calorie feed+0.25 mass % of glucosyl hesperidin • (4) Mixture of glucosyl hesperidin and caffeine (10:1) administration group; low-calorie feed+(0.25 mass % of glucosyl hesperidin+0.025 mass % of caffeine) • (5) Mixture of glucosyl hesperidin and caffeine (20:1) administration group; low-calorie feed+(0.25 mass % of glucosyl hesperidin+0.0125 mass % of caffeine) • (6) Mixture of glucosyl hesperidin and caffeine (40:1) administration group; low-calorie feed+(0.25 mass % of glucosyl hesperidin+0.00625 mass % of caffeine)
During the test period (2 weeks from the start of low-calorie feeding), body weight and feed intake were periodically measured. After the end of the test, the mice were euthanized, and subcutaneous fat tissue and mesenteric (visceral) fat tissue were removed and separately weighed.
(§1) The changes in body weight before and after the test period is shown in FIG. 4, the feed intake during the first 10 days of the test period is shown in FIG. 5, the weight of subcutaneous fat tissue per 100 g of body weight is shown in FIG. 6, and the weight of mesenteric fat tissue per 100 g of body weight is shown in FIG. 7. The results are shown as Mean±SD of each group. The $, **, and * in the figures indicate a significant difference with a risk less than 10%, a risk less than 1%, and a risk less than 5% from the control, respectively.

diet-induced obese mice [2] = assay: Test Example 3: Oligonol and caffeine fed in low-calorie feed to diet-induced obese mice; conditions: vs control group, caffeine 0.025 mass %, Oligonol 0.1 mass %, mixture 0.1+0.025 mass %
Description: As the polyphenol containing 15 mass % or more of proanthocyanidin having a polymerization degree of 1 to 3 and caffeine, “Oligonol (trade name)” (distributor: […] Five-week-old male KK mice were fed with water and a powder feed for breeding (CE-2 (trade name), made by CLEA Japan, Inc.) for one week, and then fed with the high-calorie feed (4.70 kcal/g) in Table 1 for 3 weeks for induction of obesity. […] The feeds given to the test groups are as follows. • (1) Control group; low-calorie feed • (2) Caffeine administration group; low-calorie feed+0.025 mass % of caffeine • (3) Oligonol administration group; low-calorie feed+0.1 mass % of Oligonol • (4) Present invention (mixture of Oligonol and caffeine (4:1)) administration group; low-calorie feed+(0.1 mass % of Oligonol+0.025 mass % of caffeine) During the test period (2 weeks from the start of low-calorie feeding), body weight and feed intake were periodically measured. After the end of the test, the mice were euthanized, and subcutaneous fat tissue, epididymal fat tissue, and mesenteric (visceral) fat tissue were removed and separately weighed. Also, at the start of the test period (the start of low-calorie feeding) and the end of the test period, plasma triglyceride level was measured. The changes in body weight before and after the test period is shown in FIG. 8, the feed intake during the first 10 days of the test period is shown in FIG. 9, the total weight of subcutaneous, epididymal, and mesenteric fat tissues per 100 g of body weight is shown in FIG. 10, and the changes in plasma triglyceride level before and after the test period is shown in FIG. 11. The results are shown as Mean±SD of each group.

diet-induced obese mice [3] = assay: Test Example 1: glucosyl hesperidin and caffeine fed in low-calorie feed to diet-induced obese mice; conditions: vs control group, caffeine 0.025 mass %, glucosyl hesperidin 0.25 mass %, mixture 0.25+0.025 mass %; for weight of mesenteric (visceral) fat tissue: 2 weeks low-calorie feed, FIG. 3; for changes in body weight: before and after 2 weeks low-calorie feed, FIG. 1
Description: In such a situation, the effect of the composition of the present invention comprising glucosyl hesperidin and caffeine was investigated. As the glucosyl hesperidin and caffeine, “Hayashibara Hesperidin S (trade name)” (distributor: Hayashibara Co., Ltd.) and “Chanomoto (trade name)” (purity of caffeine: 98.5%, made by Shiratori Pharmaceutical Co., Ltd.) were used, respectively.
Five-week-old male KK mice were fed with water and a powder feed for breeding (CE-2 (trade name), made by CLEA Japan, Inc.) for one week, and then fed with the high-calorie feed (4.70 kcal/g) in Table 1 shown below for 3 weeks for induction of obesity. The mice were divided into 4 groups (a control group, a caffeine administration group, a glucosyl hesperidin administration group, and a present invention administration group (caffeine+glucosyl hesperidin), 5 to 8 mice per group) and fed with the low-calorie feed (3.16 kcal/g) in Table 1 shown below or the low-calorie feed supplemented with the corresponding test sample for 2 weeks, in expectation of using body fat. The feeds given to the test groups are as follows. • (1) Control group; low-calorie feed • (2) Caffeine administration group; low-calorie feed+0.025 mass % of caffeine • (3) Glucosyl hesperidin administration group; low-calorie feed+0.25 mass % of glucosyl hesperidin • (4) Present invention (mixture of glucosyl hesperidin and caffeine (10:1)) administration group; low-calorie feed+(0.25 mass % of glucosyl hesperidin+0.025 mass % of caffeine)
During the test period (2 weeks from the start of low-calorie feeding), body weight and feed intake were periodically measured. After the end of the test, the mice were euthanized, and mesenteric (visceral) fat tissue was removed and weighed.
as §1, with “1,” for “4,”, “2,” for “5, the weight of subcutaneous fat tissue per 100 g of body weight is shown in FIG. 6,”, “3.” for “7.”, “**” for “$, **,”, “1%” for “10%, a risk less than 1%,”

| Compound | weight of subcutaneous fat tissue (diet-induced obese mice [1]) | weight of mesenteric (visceral) fat tissue (diet-induced obese mice [1]) | changes in body weight (diet-induced obese mice [1]) | total weight of fat tissues (subcutaneous, epididymal, and mesenteric) (diet-induced obese mice [2]; 2 weeks low-calorie feed, FIG. 10) | plasma triglyceride level measured on the 14th day (diet-induced obese mice [2]; 14th day of low-calorie feed, FIG. 11) | changes in body weight (diet-induced obese mice [2]; before and after 2 weeks low-calorie feed, FIG. 8) | weight of mesenteric (visceral) fat tissue (diet-induced obese mice [3]) | changes in body weight (diet-induced obese mice [3]) |
| --- | --- | --- | --- | --- | --- | --- | --- | --- |
| Cn1c(=O)c2c(ncn2C)n(C)c1=O [caffeine] | did not show any significant difference | did not show any significant difference | values equivalent to those of the control group | did not show any significant difference | did not show any significant difference | lower values | did not show any significant difference | significantly lower values |
| glucosyl hesperidin | did not show any significant difference | did not show any significant difference | values equivalent to those of the control group | – | – | – | did not show any significant difference | equivalent values |
